# Laboratory results taken from paper PMC6513986, “Molecular basis for heat desensitization of TRPV1 ion channels” (Nature Communications, 2019).
# Ends that are not written are not given here.
# Legend:
# [1] = biological target: T1, N-terminal region of mV1 (mN region, 1M-433R) (Mus musculus, UniProt Q704Y3); test: SPR, N-terminal region of mV1 immobilized; assay type: binding; conditions: 47.6 to 95.2 μM, 15 °C
# T1 construct: N-terminal region of mV1 (mN region, 1M-433R)
# Protocol: Note that the desensitization of mV1 occurs before cooling starts. Amplitude ratio (n = 7, two-sided t-test: *p < 0.01) between desensitized currents (Id) and maximum currents (Imax) induced by heat at 45 °C (right panel). c Superimposed representative temperature–response relationships of heat-evoked currents in HEK293T cells transiently transfected with pV1 and mV1. d Chimeric channels were generated between mV1 (gray) and pV1 (yellow) on the basis of the location of transmembrane domains. […] Channel plasmid was co-expressed with C-terminal region of pV1 (pC, 701N-851E) or mV1 (mC, 688N-839K). g Example current induced by a temperature ramp recorded from whole-cell patches with 1 mM mV1 C-terminal peptide (mC peptide) or random peptide in the pipette solution. h The mC peptide was perfused over an SPR sensor coated with the N-terminal region of mV1 (mN region, 1M-433R) at 15 or 35 °C (left and middle panels). The mC peptide in 95.2 μM was perfused over an SPR sensor coated with mN region at 15, 30, 33, and 35 °C (right panel). i Significant concentration and temperaturedependence of the interaction between N and C termini (n = 6, two-sided t-test: *p < 0.01). All statistical data are given as mean ± SEM. Source data are provided as a Source data file […]
# [2] = biological target: T2, mV1 (Mus musculus, UniProt Q704Y3); test: Inhibition of Dh of mV1 by C-terminal peptides or co-expressed C terminus, whole-cell; assay type: cell-based; parameters: Tau values: unit not given here; conditions: for Id/Imax / Tau values: Supplementary figure 1e
# T2 construct: expressed in transfected cells; host or cells: HEK293T
# Excerpt: To generate the mC plasmid, the pEGFP-N1 vector enzyme cutting sites by HindIII and EcoRI were made by QuickCut Hind III and QuickCut EcoR I. The primer pair (5′- […]-3′ and 5′- […]-3′) for mouse TRPV1 was generated. pEGFP-N1 enzyme digestion vector and mouse TRPV1 PCR fragment were used for homologous recombination.
# The pC plasmid was generated by the primer pair (5′-[…]-3′ and 5′-[…]-3′) and the homologous recombination between the pEGFP-N1 enzyme digestion vector and platypus TRPV1 PCR fragment were used.
# The C-terminal peptides were synthesized[26] as the following sequences:
# Random peptide: […]
# (§1) All recordings were performed at room temperature.
# (§2) Temperature control was achieved by perfusion of preheated or precooled solutions. Solutions were heated with an SHM-828 eight-line heater controlled by a CL-100 temperature controller (Harvard Apparatus). A custom-made manifold was attached to the output ports of the heater to deliver solutions to the recording chamber and provide heat insulation. Solutions were cooled by embedding the solution reservoirs in ice water and then perfused through a separate line. The patch pipette was placed about 1 mm from the solution output ports. A TA-29 miniature bead thermistor (Harvard Apparatus) was placed right next to the pipette, to ensure accurate monitoring of local temperature. The thermistor’s temperature readout was fed into an analog input of the patch amplifier and recorded simultaneously with current. With this method, we achieved rapid and reliable temperature changes.
# [3] = system: TRPV1; conditions: cited from earlier work
# Excerpt: To further corroborate our findings in FRET experiments of heat-desensitized channels, we took an alternative experimental strategy where we measured the changes in FRET induced by centipede toxin RhTx. […] Thus, we believe that the prolonged application of RhTx mimicked the effect ... || Based on the site-specific structural dynamics information, we computationally modeled the three-dimensional structure of mV1 in the Dh state. The blue shift in ANAP emission indicated a transition into a more hydrophobic environment at the 630 site, which provided an experimentally derived constraint for structural modeling using a recently published approach. As the heat-activated state of TRPV1 channels has not been resolved, we employed the double-knot toxin-bound state determined by cryo-EM (PDB ID: 3J5Q)[20] as the open state model, because a previous study had shown that Redhead tox ... || To model the heat-induced desensitized state of TRPV1, membrane-symmetry-loop modeling was performed using the Rosetta molecular modeling suite[41] version 2015.25. […] The selectivity filter, the pre S6 linker, and the S1–S2 linker were modeled de novo with the kinematic (KIC) loop modeling protocol[42],[43]. Ten th ... || (+ 1 further places)
# [4] = biological target: T3, N-terminal region of mV1 (mN region, 1M-433R) (mouse, UniProt Q704Y3 1-433); test: SPR; mN region (1M-433R) immobilised on the sensor chip, mC peptide (30 aa) perfused at 47.6 and 95.2 uM; 35 °C ('high temperature'); conditions: both partners purified
# T3 construct: mouse TRPV1 (mV1), N-terminal region, residues 1M-433R; In the functional rows the N terminus stood within the whole mV1 channel in HEK293T cells; also called N-terminal peptides; N terminus of mV1
# [5] = biological target: T3, N-terminal region of mV1 (mN region, …); test: SPR; mN region (1M-433R) immobilised on the sensor chip, mC peptide (30 aa) perfused at 47.6 and 95.2 uM; 15 °C ('low temperature'); conditions: both partners purified
# [6] = system: mV1, pV1 and mutants; test: Heat-induced desensitization (Dh): Id/Imax and tau, patch clamp; assay type: cell-based, mouse; platypus; conditions: Figure 2g
# Protocol: as §1, §2
# [7] = Id/Imax_Average of 6 replicates, SD and SEM in columns of their own
# [8] = Tau values_Average of 6 replicates, SD and SEM in columns of their own
molecule,measurement,setting,value
PEEVQLKHYTGSLKPEDAEVFKDSMAPGEK [mC peptide],increase in SPR response,[1],162%
QVEEPTYHKLPKLSGVEADEMSDKFKEGPM [Random peptide],inhibition of Dh of mV1,"[2]; 1 mM peptide in pipette solution, whole-cell",failed to inhibit Dh
"LKHYTGSLKPEDAEVFKDSMAPGEK [Pep_25, C-terminal peptide]",Id/Imax,[2]; [7],0.403
same,Tau values,[2]; [8],59.5
same,Id/Imax,[2]; replicate 1,0.318
same,Tau values,[2]; replicate 1,43.8
same,Id/Imax,[2]; replicate 2,0.509
same,Tau values,[2]; replicate 2,73
same,Id/Imax,[2]; replicate 3,0.427
same,Tau values,[2]; replicate 3,60.4
same,Id/Imax,[2]; replicate 4,0.384
same,Tau values,[2]; replicate 4,48.3
same,Id/Imax,[2]; replicate 5,0.367
same,Tau values,[2]; replicate 5,52
same,Id/Imax,[2]; replicate 6,0.413
same,Tau values,[2]; replicate 6,79.5
C=C(C)[C@]12C[C@@H](C)[C@@]34O[C@](Cc5ccccc5)(O[C@@H]1[C@@H]3C=C(COC(=O)Cc1ccc(O)c(OC)c1)C[C@]1(O)C(=O)C(C)=C[C@@H]41)O2 [RTX],activation through heat activation pathway,[3],activated the channel through heat activation pathway
"GSLKPEDAEVFKDSMAPGEK [Pep_20, C-terminal peptide]",Id/Imax,[2]; [7],0.596
same,Tau values,[2]; [8],29.8
same,Id/Imax,[2]; replicate 1,0.486
same,Tau values,[2]; replicate 1,23.5
same,Id/Imax,[2]; replicate 2,0.667
same,Tau values,[2]; replicate 2,38.3
same,Id/Imax,[2]; replicate 3,0.715
same,Tau values,[2]; replicate 3,20.7
same,Id/Imax,[2]; replicate 4,0.612
same,Tau values,[2]; replicate 4,24.4
same,Id/Imax,[2]; replicate 5,0.567
same,Tau values,[2]; replicate 5,39.6
same,Id/Imax,[2]; replicate 6,0.529
same,Tau values,[2]; replicate 6,32.3
PEEVQLKHYTGSLKPEDAEVFKDSMAPGEK (last 30 residues of mouse TRPV1 (mV1); The text ties the SPR and the pipette experiment to 'a 30-amino-acid' C-terminal peptide; Pep_30 is the only printed peptide of that length from mV1; also called mC peptide; C-terminal peptides (a 30-amino-acid molecule); source: synthetic peptide) [mV1 C-terminal peptide (Pep_30)],Kd,[4],3 nM
same,Kd,[5],140 nM
"C terminus of mV1: C-terminal region of mV1 (mC, 688N-839K), co-expressed plasmid (protein, left off: eGFP (from the vector pEGFP-N1), end not stated, state not stated, C-terminal region of mV1 (mC, 688N-839K), co-expressed plasmid) NKIAQESKNIWKLQRAITILDTEKSFLKCMRKAFRSGKLLQVGFTPDGKDDFRWCFRVDEVNWTTWNTNVGIINEDPGNCEGVKRTLSFSLRSGRVSGRNWKNFALVPLLRDASTRDRHSTQPEEVQLKHYTGSLKPEDAEVFKDSMAPGEK",inhibition of Dh of mV1,[2]; co-expression with C-terminal region,largely inhibited
"DkTx: peptide toxin, double-knot toxin (peptide, UniProt P0CH43 1-79, looked up) Tau-theraphotoxin-Hs1a: DCAKEGEVCSWGKKCCDLDNFYCPMEFIPHCKKYKPYVPVTTNCAKEGEVCGWGSKCCHGLDCPLAFIPYCEKYRGRND",activation through heat activation pathway,[3],activated the channel through heat activation pathway
same,mimicry of heat activation,[3],mimic heat activation of TRPV1
"mV1 (protein, UniProt Q704Y3 1-839, looked up) Transient receptor potential …: MEKWASLDSDESEPPAQENSCPDPPDRDPNSKPPPAKPHIFATRSRTRLFGKGDSEEASPMDCPYEEGGLASCPIITVSSVVTLQRSVDGPTCLRQTSQDSVSTGVETPPRLYDRRSIFDAVAQSNCQELESLLSFLQKSKKRLTDSEFKDPETGKTCLLKAMLNLHNGQNDTIALLLDIARKTDSLKQFVNASYTDSYYKGQTALHIAIERRNMALVTLLVENGADVQAAANGDFFKKTKGRPGFYFGELPLSLAACTNQLAIVKFLLQNSWQPADISARDSVGNTVLHALVEVADNTADNTKFVTNMYNEILILGAKLHPTLKLEELTNKKGLTPLALAASSGKIGVLAYILQREIHEPECRHLSRKFTEWAYGPVHSSLYDLSCIDTCEKNSVLEVIAYSSSETPNRHDMLLVEPLNRLLQDKWDRFVKRIFYFNFFVYCLYMIIFTTAAYYRPVEGLPPYKLNNTVGDYFRVTGEILSVSGGVYFFFRGIQYFLQRRPSLKSLFVDSYSEILFFVQSLFMLVSVVLYFSHRKEYVASMVFSLAMGWTNMLYYTRGFQQMGIYAVMIEKMILRDLCRFMFVYLVFLFGFSTAVVTLIEDGKNNSLPVESPPHKCRGSACRPGNSYNSLYSTCLELFKFTIGMGDLEFTENYDFKAVFIILLLAYVILTYILLLNMLIALMGETVNKIAQESKNIWKLQRAITILDTEKSFLKCMRKAFRSGKLLQVGFTPDGKDDFRWCFRVDEVNWTTWNTNVGIINEDPGNCEGVKRTLSFSLRSGRVSGRNWKNFALVPLLRDASTRDRHSTQPEEVQLKHYTGSLKPEDAEVFKDSMAPGEK",Id/Imax_Average,[6]; mean of replicates,0.993
same,Id/Imax,[6]; replicate 1,0.9971
same,Id/Imax,[6]; replicate 2,0.9951
same,Id/Imax,[6]; replicate 3,0.999
same,Id/Imax,[6]; replicate 4,0.9588
same,Id/Imax,[6]; replicate 5,0.9972
same,Id/Imax,[6]; replicate 6,0.9943
same,Id/Imax,[6]; replicate 7,0.9968
same,Id/Imax,[6]; replicate 8,0.9956
same,Id/Imax,[6]; replicate 9,0.9982
same,Id/Imax,[6]; replicate 10,0.9979
